Results taken from the NIST ThermoML archive (doi:10.1016/j.tca.2015.08.011).
Numbers after ± are expanded uncertainties.

Columns and labels:
[1] = molar heat capacity at constant pressure; settings: 101.33 kPa, Crystal, Small sample (50 mg) DSC
[2] = 101.33 kPa, Crystal, Laser pulse heating

[Ce+4].[O-2].[O-2] [ceric oxide]
Settings	molar heat capacity at constant pressure, [1] [J/K/mol]	thermal conductivity, [2] [W/m/K]
298.15 K	–	15.15 ± 0.91
323.15 K	57.9 ± 1.2	–
373.15 K	62.1 ± 1.2	–
423.15 K	65.42 ± 1.3	–
473.15 K	67.99 ± 1.4	–
523.15 K	69.93 ± 1.4	–
573.15 K	71.34 ± 1.4	–
623.15 K	72.32 ± 1.4	–
673.15 K	72.96 ± 1.5	–
723.15 K	73.34 ± 1.5	–
773.15 K	73.53 ± 1.5	6.05 ± 0.36
823.15 K	73.6 ± 1.5	–
873.15 K	73.58 ± 1.5	–
923.15 K	73.53 ± 1.5	–
973.15 K	73.48 ± 1.5	–
1023.1 K	73.44 ± 1.5	–
1073.2 K	73.46 ± 1.5	–
1123.2 K	73.51 ± 1.5	–
1173.2 K	73.61 ± 1.5	–
1273.2 K	–	2.7 ± 0.16
